Among the data in patent US8969294B2 (Istituto di Recerche di Biologia Molecolare P. Angeletti …, priority 2008, dated 2015) are EC50 values, retold here.

Where two headings read alike, the source gives them in different places. Numbered stars: 1 amine (or outer) side, 2 acyl side, 3 side chain; on linkers, the order of the positions; unused ones are H or OH. Bridge positions count the residues as written; N and C are the ends. Square brackets hold non-standard residues; d marks the D form. Side chains are listed from the residue outwards. Peptide text beside a SMILES is read from it. * marks the point of attachment. γGlu = O=C(O)[C@H](CCC(=O)[*:2])N[*:1]; Palmitoyl = CCCCCCCCCCCCCCCC(=O)*; Aib = CC(C)(N)C(=O)O

In the experiment the target is glucagon receptor (Homo sapiens, UniProt P47871). Nature of the experiment: Functional assay, cAMP synthesis: luciferase reporter in HEK293 cells co-transfected with glucagon receptor. Background: In a reporter assay the amount or activity of a reporter protein is the signal.
Setting [1] is: EC50, Glucagon Receptor, Table 13.
Where [2] appears, read: EC50 at Glucagon Receptor, Table 31.

glucagon receptor, sequence (P47871 26-477): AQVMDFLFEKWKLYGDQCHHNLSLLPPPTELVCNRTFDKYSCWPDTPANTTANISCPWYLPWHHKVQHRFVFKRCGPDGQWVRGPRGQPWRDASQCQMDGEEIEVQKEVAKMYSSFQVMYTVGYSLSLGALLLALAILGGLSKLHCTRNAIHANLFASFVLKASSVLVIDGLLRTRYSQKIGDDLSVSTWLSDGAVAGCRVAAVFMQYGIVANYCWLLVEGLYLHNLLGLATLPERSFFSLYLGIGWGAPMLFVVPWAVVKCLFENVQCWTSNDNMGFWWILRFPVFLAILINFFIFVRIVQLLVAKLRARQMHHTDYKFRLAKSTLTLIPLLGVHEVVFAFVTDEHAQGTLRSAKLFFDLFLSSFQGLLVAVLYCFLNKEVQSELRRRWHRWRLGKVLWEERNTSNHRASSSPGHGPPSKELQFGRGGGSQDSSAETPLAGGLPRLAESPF
Protocol: Peptide absorbance readings were obtained from UV Absorbance measurements at 280 nm on a Genesys 6 Spectrophotometer (Thermo Electron Corporation). Beer's Law was used to calculate solution concentrations based on the number of tryptophan and tyrosine residues in each analog. At the end of the incubation, 100 μL LucLite luminescence substrate reagent was added to each well, the plate sealed and shaken, and placed into a Wallac Trilux luminescence counter for cAMP detection.
HEK293 cells were co-transfected with the GcgR or GLP-1R cDNAs and a luciferase reporter gene-linked to a cAMP response element (CRE). […] The plate was incubated for 10 min in the dark and light output was quantified on a MicroBeta1450 liquid scintillation counter (Perkin-Elmer, Wellesley, Mass.).

One may read the EC50 as the midpoint of the concentration-response curve. `CCCCCCCCCCCCCCCC(=O)N[C@@H](Cc1c[nH]c2ccccc12)C(=O)NCCCC[C@H](NC(=O)[C@H](CC(=O)O)NC(=O)[C@H](CO)NC(=O)[C@@H](NC(=O)[C@H](Cc1ccccc1)NC(=O)[C@@H](NC(=O)CNC(=O)[C@H](CCC(N)=O)NC(=O)[C@H](CO)NC(=O)[C@@H](N)Cc1c[nH]cn1)[C@@H](C)O)[C@@H](C)O)C(=O)N[C@@H](CO)C(=O)N[C@@H](CCCCN)C(=O)N[C@@H](Cc1ccc(O)cc1)C(=O)N[C@@H](CC(C)C)C(=O)N[C@@H](CC(=O)O)C(=O)N[C@@H](CCC(=O)O)C(=O)N[C@@H](CCCNC(=N)N)C(=O)N[C@@H](CCCNC(=N)N)C(=O)N[C@@H](C)C(=O)N[C@@H](CCCCN)C(=O)N[C@@H](CC(=O)O)C(=O)N[C@@H](Cc1ccccc1)C(=O)N[C@H](C(=O)N[C@@H](CCC(N)=O)C(=O)N[C@@H](Cc1c[nH]c2ccccc12)C(=O)N[C@@H](CC(C)C)C(=O)N[C@@H](CCSC)C(=O)N[C@@H](CC(N)=O)C(=O)N[C@H](C(N)=O)[C@@H](C)O)C(C)C` [E16 K20-glucagon-NH2 with K^10—W—C16] returned a 50% effective concentration (EC50) under setting [1] of 0.14 nM.

Regarding `CCCCCCCCCCCCCCCCCC(=O)N[C@@H](Cc1c[nH]c2ccccc12)C(=O)NCCCC[C@H](NC(=O)[C@H](CC(=O)O)NC(=O)[C@H](CO)NC(=O)[C@@H](NC(=O)[C@H](Cc1ccccc1)NC(=O)[C@@H](NC(=O)CNC(=O)[C@H](CCC(N)=O)NC(=O)[C@H](CO)NC(=O)[C@@H](N)Cc1c[nH]cn1)[C@@H](C)O)[C@@H](C)O)C(=O)N[C@@H](CO)C(=O)N[C@@H](CCCCN)C(=O)N[C@@H](Cc1ccc(O)cc1)C(=O)N[C@@H](CC(C)C)C(=O)N[C@@H](CC(=O)O)C(=O)N[C@@H](CCC(=O)O)C(=O)N[C@@H](CCCNC(=N)N)C(=O)N[C@@H](CCCNC(=N)N)C(=O)N[C@@H](C)C(=O)N[C@@H](CCCCN)C(=O)N[C@@H](CC(=O)O)C(=O)N[C@@H](Cc1ccccc1)C(=O)N[C@H](C(=O)N[C@@H](CCC(N)=O)C(=O)N[C@@H](Cc1c[nH]c2ccccc12)C(=O)N[C@@H](CC(C)C)C(=O)N[C@@H](CCSC)C(=O)N[C@@H](CC(N)=O)C(=O)N[C@H](C(N)=O)[C@@H](C)O)C(C)C` [E16 K20-glucagon-NH2 with K^10—W—C18], the EC50 turned out to be 0.05 nM under setting [1] and 0.044 nM (EC50 at Glucagon Receptor, Table 17).

Take `CSCC[C@H](NC(=O)[C@H](CC(C)C)NC(=O)[C@H](Cc1c[nH]c2ccccc12)NC(=O)[C@H](CCC(N)=O)NC(=O)[C@@H](NC(=O)[C@H](Cc1ccccc1)NC(=O)[C@H](CC(=O)O)NC(=O)[C@H](CCC(N)=O)NC(=O)[C@H](C)NC(=O)[C@H](CCCNC(=N)N)NC(=O)[C@H](CCCNC(=N)N)NC(=O)C(C)(C)NC(=O)[C@H](CC(=O)O)NC(=O)[C@H](CC(C)C)NC(=O)[C@H](Cc1ccc(O)cc1)NC(=O)[C@H](CCCCN)NC(=O)[C@H](CO)NC(=O)[C@H](Cc1ccc(O)cc1)NC(=O)[C@H](CC(=O)O)NC(=O)[C@H](CO)NC(=O)[C@@H](NC(=O)[C@H](Cc1ccccc1)NC(=O)[C@@H](NC(=O)CNC(=O)[C@H](CCC(N)=O)NC(=O)C(C)(C)NC(=O)[C@@H](N)Cc1c[nH]cn1)[C@@H](C)O)[C@@H](C)O)C(C)C)C(=O)N[C@@H](CC(N)=O)C(=O)N[C@H](C(N)=O)[C@@H](C)O` [Peptide 26] (H-H[Aib]QGTFTSDYSKYLD[Aib]RRAQDFVQWLMNT-NH2; N-terminus assumed): under “read-out: EC50 at Glucagon Receptor, Table 22”, the EC50 amounted to 0.653 ± 0.285 nM.

On to `CSCC[C@H](NC(=O)[C@H](CC(C)C)NC(=O)[C@H](Cc1c[nH]c2ccccc12)NC(=O)[C@H](CC(N)=O)NC(=O)[C@@H](NC(=O)[C@H](Cc1ccccc1)NC(=O)[C@H](CCC(=O)O)NC(=O)[C@@H]1CCCCNC(=O)CC[C@H](NC(=O)[C@H](CC(=O)O)NC(=O)[C@H](CC(C)C)NC(=O)[C@H](Cc2ccc(O)cc2)NC(=O)[C@H](CCCCN)NC(=O)[C@H](CO)NC(=O)[C@H](Cc2ccc(O)cc2)NC(=O)[C@H](CC(=O)O)NC(=O)[C@H](CO)NC(=O)[C@@H](NC(=O)[C@H](Cc2ccccc2)NC(=O)[C@@H](NC(=O)CNC(=O)[C@H](CCC(N)=O)NC(=O)[C@H](CO)NC(=O)[C@@H](N)Cc2ccc(O)cc2)[C@@H](C)O)[C@@H](C)O)C(=O)N[C@@H](CCC(N)=O)C(=O)N[C@@H](C)C(=O)N[C@@H](C)C(=O)N1)C(C)C)C(=O)N[C@@H](CC(N)=O)C(=O)NCC(=O)NCC(=O)N1CCC[C@H]1C(=O)N[C@@H](CO)C(=O)N[C@@H](CO)C(=O)NCC(=O)N[C@@H](C)C(=O)N1CCC[C@H]1C(=O)N1CCC[C@H]1C(=O)N1CCC[C@H]1C(=O)N[C@@H](CO)C(N)=O` [SEQ ID NO: 555] (H-YSQGTFTSDYSKYLDEQAAKEFVNWLMNGGPSSGAPPPS-NH2; lactam 16-20; N-terminus assumed), for which the EC50 (EC50, Glucagon receptor, Table 18) turned out to be 0.044 nM.

In turn, `CCCCCCCCCCCCCCCC(=O)N[C@@H](CCC(=O)N[C@@H](CCC(=O)NCCCC[C@H](NC(=O)[C@H](CC(=O)O)NC(=O)[C@H](CO)NC(=O)[C@@H](NC(=O)[C@H](Cc1ccccc1)NC(=O)[C@@H](NC(=O)CNC(=O)[C@H](CCC(N)=O)NC(=O)[C@@H](CO)NC(=O)[C@@H](N)Cc1c[nH]cn1)[C@@H](C)O)[C@@H](C)O)C(=O)N[C@@H](CO)C(=O)N[C@@H](CCCCN)C(=O)N[C@@H](Cc1ccc(O)cc1)C(=O)N[C@@H](CC(C)C)C(=O)N[C@@H](CC(=O)O)C(=O)N[C@@H](CCC(=O)O)C(=O)N[C@@H](CCC(N)=O)C(=O)N[C@@H](C)C(=O)N[C@@H](C)C(=O)N[C@@H](CCCCN)C(=O)N[C@@H](CCC(=O)O)C(=O)N[C@@H](Cc1ccccc1)C(=O)N[C@H](C(=O)N[C@@H](C)C(=O)N[C@@H](Cc1c[nH]c2ccccc12)C(=O)N[C@@H](CC(C)C)C(=O)N[C@@H](CCSC)C(=O)N[C@@H](CC(N)=O)C(=O)N[C@H](C(N)=O)[C@@H](C)O)[C@@H](C)CC)C(=O)O)C(=O)O` [compound 644] returned an EC50 under setting [2] of 0.008 nM.

Under setting [2], `CCCCCCCCCCCCCCCC(=O)N[C@@H](CCC(=O)NCCCC[C@H](NC(=O)[C@H](CC(=O)O)NC(=O)[C@H](CO)NC(=O)[C@@H](NC(=O)[C@H](Cc1ccccc1)NC(=O)[C@@H](NC(=O)CNC(=O)[C@H](CCC(N)=O)NC(=O)C(C)(C)NC(=O)[C@@H](N)Cc1c[nH]cn1)[C@@H](C)O)[C@@H](C)O)C(=O)N[C@@H](CO)C(=O)N[C@@H](CCCCN)C(=O)N[C@@H](Cc1ccc(O)cc1)C(=O)N[C@@H](CC(C)C)C(=O)N[C@@H](CC(=O)O)C(=O)N[C@@H](CCC(=O)O)C(=O)N[C@@H](CCC(N)=O)C(=O)N[C@@H](C)C(=O)N[C@@H](C)C(=O)N[C@@H](CCCCN)C(=O)N[C@@H](CCC(=O)O)C(=O)N[C@@H](Cc1ccccc1)C(=O)N[C@H](C(=O)N[C@@H](C)C(=O)N[C@@H](Cc1c[nH]c2ccccc12)C(=O)N[C@@H](CC(C)C)C(=O)N[C@@H](CCSC)C(=O)N[C@@H](CC(N)=O)C(=O)N[C@H](C(N)=O)[C@@H](C)O)[C@@H](C)CC)C(=O)O` [compound 645] registered a half-maximal effective concentration (EC50) of 0.025 nM.

In the case of `CCCCCCCCCCCCCCCC(=O)NCCCC[C@H](NC(=O)[C@H](CC(=O)O)NC(=O)[C@H](CO)NC(=O)[C@@H](NC(=O)[C@H](Cc1ccccc1)NC(=O)[C@@H](NC(=O)CNC(=O)[C@H](CCC(=O)O)NC(=O)C(C)(C)NC(=O)[C@@H](N)Cc1c[nH]cn1)[C@@H](C)O)[C@@H](C)O)C(=O)N[C@@H](CO)C(=O)N[C@@H](CCCCN)C(=O)N[C@@H](Cc1ccc(O)cc1)C(=O)N[C@@H](CC(C)C)C(=O)N[C@@H](CC(=O)O)C(=O)N[C@@H](CCC(=O)O)C(=O)N[C@@H](CCC(N)=O)C(=O)N[C@@H](C)C(=O)N[C@@H](C)C(=O)N[C@@H](CCCCN)C(=O)N[C@@H](CCC(=O)O)C(=O)N[C@@H](Cc1ccccc1)C(=O)N[C@H](C(=O)N[C@@H](C)C(=O)N[C@@H](Cc1c[nH]c2ccccc12)C(=O)N[C@@H](CC(C)C)C(=O)N[C@@H](CCSC)C(=O)N[C@@H](CC(N)=O)C(=O)N[C@H](C(N)=O)[C@@H](C)O)[C@@H](C)CC` [compound 647] (H-H[Aib]EGTFTSDK(Palmitoyl)SKYLDEQAAKEFIAWLMNT-NH2; N-terminus assumed), under setting [2], the EC50 was found to be 46.1 nM.

On to `CCCCCCCCCCCCCCCC(=O)N[C@@H](CCC(=O)N[C@@H](CCC(=O)NCCCC[C@H](NC(=O)[C@H](CC(=O)O)NC(=O)[C@H](CO)NC(=O)[C@@H](NC(=O)[C@H](Cc1ccccc1)NC(=O)[C@@H](NC(=O)CNC(=O)[C@H](CCC(=O)O)NC(=O)C(C)(C)NC(=O)[C@@H](N)Cc1c[nH]cn1)[C@@H](C)O)[C@@H](C)O)C(=O)N[C@@H](CO)C(=O)N[C@@H](CCCCN)C(=O)N[C@@H](Cc1ccc(O)cc1)C(=O)N[C@@H](CC(C)C)C(=O)N[C@@H](CC(=O)O)C(=O)N[C@@H](CCC(=O)O)C(=O)N[C@@H](CCC(N)=O)C(=O)N[C@@H](C)C(=O)N[C@@H](C)C(=O)N[C@@H](CCCCN)C(=O)N[C@@H](CCC(=O)O)C(=O)N[C@@H](Cc1ccccc1)C(=O)N[C@H](C(=O)N[C@@H](C)C(=O)N[C@@H](Cc1c[nH]c2ccccc12)C(=O)N[C@@H](CC(C)C)C(=O)N[C@@H](CCSC)C(=O)N[C@@H](CC(N)=O)C(=O)N[C@H](C(N)=O)[C@@H](C)O)[C@@H](C)CC)C(=O)O)C(=O)O` [compound 648] (H-H[Aib]EGTFTSDK([γGlu-γGlu-Palmitoyl])SKYLDEQAAKEFIAWLMNT-NH2; N-terminus assumed), for which the EC50 under setting [2] worked out at 2.92 nM.

Regarding `CCCCCCCCCCCCCCCC(=O)N[C@@H](CCC(=O)N[C@@H](CCC(=O)NCCCC[C@H](NC(=O)[C@H](CC(=O)O)NC(=O)[C@H](CO)NC(=O)[C@@H](NC(=O)[C@H](Cc1ccccc1)NC(=O)[C@@H](NC(=O)CNC(=O)[C@H](CCC(N)=O)NC(=O)C(C)(C)NC(=O)[C@@H](N)Cc1c[nH]cn1)[C@@H](C)O)[C@@H](C)CC)C(=O)N[C@@H](CO)C(=O)N[C@@H](CCCCN)C(=O)N[C@@H](Cc1ccc(O)cc1)C(=O)N[C@@H](CC(C)C)C(=O)N[C@@H](CC(=O)O)C(=O)N[C@@H](CCC(=O)O)C(=O)N[C@@H](CCC(N)=O)C(=O)N[C@@H](C)C(=O)N[C@@H](C)C(=O)N[C@@H](CCCCN)C(=O)N[C@@H](CCC(=O)O)C(=O)N[C@@H](Cc1ccccc1)C(=O)N[C@H](C(=O)N[C@@H](C)C(=O)N[C@@H](Cc1c[nH]c2ccccc12)C(=O)N[C@@H](CC(C)C)C(=O)N[C@@H](CCSC)C(=O)N[C@@H](CC(N)=O)C(=O)N[C@H](C(N)=O)[C@@H](C)O)[C@@H](C)CC)C(=O)O)C(=O)O` [compound 650], it took 0.007 nM to reach a half-maximal effect under setting [2] (EC50).
